18 compounds from patent US11833162B2, “Macrocyclic derivatives, process for preparing same and pharmaceutical compositions containing same” (LES LABORATOIRES SERVIER, priority 2017, dated 2023) can be followed below.

Test [1] has as its system RS4; 11 leukaemia tumour line. Put plainly: In vitro cytotoxicity, Microculture Tetrazolium Assay (MTT). In kind it is cell-based. Conditions: Homo sapiens, RS4-11, 48 h, 11 cells, 48 hours exposure. As for the experimental part:
The cytotoxicity studies were carried out on the RS4; 11 leukaemia tumour line.
The cells are distributed onto microplates and exposed to the test compounds for 48 hours.
The cell viability is then quantified by a colorimetric assay, the Microculture Tetrazolium Assay (Cancer Res., 1987, 47, 939-942).

In a further test the target is Bcl-2 protein (histag-Bcl-2, UniProtKB P10415) (Homo sapiens, UniProt P10415). Put plainly: Inhibition of Bcl-2 by the fluorescence polarisation technique. Conditions: for Bcl-2 FP, % at given concentration: @10 μM; for IC50: fluorescence polarisation, 2 hours incubation, read-out: IC50 (μM) Bcl-2 FP. It is filed as binding. As to the method: The fluorescence polarisation tests were carried out on microplates (384 wells). The Bcl-2 protein, labelled (histag-Bcl-2 such that Bcl-2 corresponds to the UniProtKB® primary accession number: P10415), at a final concentration of 5×10^−9M, is mixed with a fluorescent peptide (Fluorescein-REIGAQLRRMADDLNAQY), at a final concentration of 1.00×10^−9M in a buffer solution (Hepes 10 mM, NaCl 150 mM, Tween20 0.05%, pH 7.4), in the presence or absence of increasing concentrations of test compounds. After incubation for 2 hours, the fluorescence polarisation is measured.
In general terms: Fluorescence polarisation rises when a labelled molecule tumbles more slowly, as on binding a larger partner.

Counter-ions that a name gives are not always drawn.

Chain of Bcl-2 protein (P10415 whole entry): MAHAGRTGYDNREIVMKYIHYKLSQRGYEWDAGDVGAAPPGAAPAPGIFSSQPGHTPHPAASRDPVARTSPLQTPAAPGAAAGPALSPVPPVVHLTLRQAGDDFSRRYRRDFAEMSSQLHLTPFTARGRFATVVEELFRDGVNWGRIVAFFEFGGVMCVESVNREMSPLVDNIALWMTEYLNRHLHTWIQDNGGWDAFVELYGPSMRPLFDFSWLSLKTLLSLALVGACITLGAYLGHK

In the case of `Cc1c2cc(n1C)-c1cc(Cl)ccc1C(=O)N1CCCC(COCCOCCOc3ncc(cn3)N(c3ccc(O)cc3)C2=O)C1` (stereo not drawn) [Example 42, 10-Chloro-2-(4-hydroxyphenyl)-5,6-dimethyl-21,24,27-trioxa-2,6,15,29,32-pentaazapentacyclo[26.2.2.1˜4,7˜.1˜15,19˜.0˜8,13˜]tetratriaconta-1(30),4, 7(34),8,10,12,28,31-octaene-3,14-dione], the IC50 (as a rule, the concentration that inhibits the measured activity by half) in test [1] was over 600 nM. At Bcl-2 protein, the “Bcl-2 FP, % at given concentration” value is listed as 39.2% @10 μM.
On to `Cc1c2cc(n1C)-c1cc(F)ccc1C(=O)N1CCc3c(cccc3OCCOCCOc3ncc(cn3)N(c3ccc(O)cc3)C2=O)C1` [Example 37, 10-Fluoro-2-(4-hydroxyphenyl)-5,6-dimethyl-24,27,30-trioxa-2,6,15,32,35-pentaazahexacyclo[29.2.2.1˜4,7˜.1˜15,19˜.0˜8,13˜.0˜18,23˜]heptatriaconta-1(33),4,7(37),8,10,12,18,20,22,31,34-undecuene-3,14-dione], for which the IC50 in test [1] amounted to 49.6 nM; on Bcl-2 protein it was 0.0102 µM.
As to `Cc1c2cc(n1C)-c1cc(Cl)ccc1C(=O)N1Cc3cccc(c3C1)OCCOCCOc1ncc(cn1)N(c1ccc(O)cc1)C2=O` [Example 36, 10-Chloro-2-(4-hydroxyphenyl)-5,6-dimethyl-23,26,29-trioxa-2,6,15,31,34-pentaazahexacyclo[28.2.2.1˜4,7˜.1˜15,18˜.0˜8,13˜.0˜17,22˜]hexatriaconta-1(32),4,7(36),8,10,12,17,19,21,30,33-undecaene-3,14-dione], in test [1], the IC50 was over 600 nM. At Bcl-2 protein, the “Bcl-2 FP, % at given concentration” value came to 41.5% @10 μM.
For the compound `Cc1c2cc(n1C)-c1cc(Cl)ccc1C(=O)N1CCc3c(cccc3OCCCOc3cccc(c3)N(c3ccc(O)cc3)C2=O)C1` [Example 2, 6-Chloro-14-(4-hydroxyphenyl)-10,11-dimethyl-20,24-dioxa-1,10,14-triazahexacyclo[27.3.1.1˜9,12˜.1˜15,19˜.0˜3,8˜.0˜25,30˜]pentatriaconta-3,5,7,9(35),11,15(34),16,18,25,27,29-undecaene-2,13-dione], the values for the IC50 (in test [1]; on Bcl-2 protein) were 179 nM and 0.0044 µM, respectively.
`Cc1c(N2C(=O)c3cc(n(C)c3C)-c3ccccc3C(=O)N3CCC(CCOc4cc(O)ccc42)CC3)cc(C#N)n1C` [Example 28, 4-[3-Hydroxy-18,19-dimethyl-12,21-dioxo-7,8,9,10,18,21-hexahydro-6H,12H,22H-8,11-ethano-20,17-(metheno)dibenzo[b,j][1,4,8,13]oxatriazacycloocta-decin-22-yl]-1,5-dimethyl-1H-pyrrole-2-carbonitrile]: the IC50 in test [1] came out at 401 nM; on Bcl-2 protein, 0.0288 µM.
Consider `Cc1c2cc(n1C)-c1cc(Cl)ccc1C(=O)N1CCC(CC1)COCCOCCOc1ncc(cn1)N(c1ccc(O)cc1)C2=O` [Example 43, 6-Chloro-14-(4-hydroxyphenyl)-10,11-dimethyl-19,22,25-trioxa-1,10,14,17,32-pentaazapentacyclo[25.2.2.2˜15,18˜. 1˜9,12˜.0˜3,8˜]tetratriaconta-3,5,7,9(34),11,15,17,32-octaene-2,13-dione], for which the IC50 in test [1] was over 1880 nM. Also, at Bcl-2 protein, the “Bcl-2 FP, % at given concentration” value is reported as 34.8% @10 μM.
Turning to `Cc1c2cc(n1C)-c1cc(Cl)ccc1C(=O)N1CCc3c(cccc3C1)CCCOc1cc(C#N)cc(c1)N(c1ccc(O)cc1)C2=O` [Example 14, 6-Chloro-14-(4-hydroxyphenyl)-10,11-dimethyl-2,13-dioxo-20-oxa-1,10,14-triazahexacyclo[26.3.1.1˜9,12˜.1˜15,19˜.0˜3,8˜.0˜24,29˜]tetratriaconta-3,5,7,9(34),11,15(33),16,18,24,26,28-undecaene-17-carbonitrile], the IC50 in test [1] was determined as 14.6 nM; at Bcl-2 protein, 0.0147 µM.
The matching figures for `Cc1c2cc(n1C)-c1cc(Cl)ccc1C(=O)N1CCc3c(cccc3OCCCc3cc(C#N)cc(c3)N(c3ccc(O)cc3)C2=O)C1` [Example 9, 6-Chloro-14-(4-hydroxyphenyl)-10,11-dimethyl-2,13-dioxo-23-oxa-1,10,14-triazahexacyclo[26.3.1.1˜9,12˜.1˜15,19˜.0˜3,8˜.0˜24,29˜]tetratriaconta-3,5,7,9(34),11.15 (33),16,18,24,26,28-undecaene-17-carbonitrile]: 5.24 nM and 0.0023 µM.
Turning to `Cc1c2cc(n1C)-c1cc(Cl)ccc1C(=O)N1Cc3cccc(c3CC1CN1CCOCC1)OCCCc1c(cnn1C)N(c1ccc(O)cc1)C2=O` (stereo not drawn) [Example 17, 11-Chloro-4-(4-hydroxyphenyl)-1,7,8-trimethyl-16-(morpholin-4-ylmethyl)-4,16,17,23,24,25-hexahydro-1H,14H-15,18-methano-6,9-(metheno)dibenzo-[b,h]pyrazolo[4,3-p][1,6,11,15]oxatriazacycloicosine-5,14(8H)-dione], the IC50 in test [1] is 62.8 nM; at Bcl-2 protein it was 0.0123 µM.
For `Cc1c2cc(n1C)-c1cc(Cl)ccc1C(=O)N1CCc3c(cccc3OCCCCn3c(C#N)cc(c3C)N(c3ccc(O)cc3)C2=O)C1` [Example 7, 6-Chloro-14-(4-hydroxyphenyl)-10,11,33-trimethyl-2,13-dioxo-23-oxa-1,10,14,18-tetraazahexacyclo[26.3.1.1˜9,12˜.1˜15,18˜.0˜3,8˜.0˜24,29˜]tetratriaconta-3,5,7,9(34),11,15(33),16,24,26,28-decaene-17-carbonitrile], the IC50 in test [1] came out at 4.94 nM; on Bcl-2 protein, 0.003 µM.
The matching figures for `Cc1c2cc(n1C)-c1cc(Cl)ccc1C(=O)N1CCc3c(cccc3OCCN(C)CCOc3ncc(cn3)N(c3ccc(O)cc3)C2=O)C1` [Example 44, 10-Chloro-2-(4-hydroxyphenyl)-5,6,27-trimethyl-24,30-dioxa-2,6,15,27,32,35-hexaazahexacyclo[29.2.2.1˜4,7˜.1˜15,19˜.0˜8,13˜.0˜18,23˜]hepta-triaconta-1(33),4,7(37),8,10,12,18,20,22,31,34-undecaene-3,14-dione]: 35.4 nM and 0.00497 µM.
For the compound `Cc1c2cc(n1C)-c1cc(Cl)ccc1CN1CCc3c(cccc3OCCc3c(cnn3C)N(c3ccc(O)cc3)C2=O)C1` [Example 10, 11-Chloro-4-(4-hydroxyphenyl)-1,7,8-trimethyl-1,4,16,17,23,24-hexahydro-14H-15,18-methano-6,9-(metheno)dibenzo[l,r]pyrazolo[3,4-d]-[1,6,10,15]oxatriazacyclononadecin-5(8H)-one hydrochloride], the values for the IC50 (in test [1]; on Bcl-2 protein) were over 300 nM and 0.299 µM, respectively.
For the compound `Cc1c2cc(n1C)-c1cc(Cl)ccc1C(=O)N1CCc3c(cccc3OCCCCOc3cccc(c3)N(c3ccc(O)cc3)C2=O)C1` [Example 3, 6-Chloro-14-(4-hydroxyphenyl)-10,11-dimethyl-20,25-dioxa-1,10,14-triazahexacyclo[28.3.1.1˜9,12˜.1˜15,19˜.0˜3,8˜.0˜26,31˜]hexatriaconta-3,5,7,9(36),11,15(35),16,18,26,28,30-undecaene-L 3-dione], the results for the IC50 (in test [1]; on Bcl-2 protein) were 749 nM and 0.0655 µM, respectively.
The matching figures for `Cc1c2cc(n1C)-c1cc(Cl)ccc1C(=O)N1CCc3c(cccc3OCCCn3c(C#N)cc(c3C)N(c3ccc(O)cc3)C2=O)C1` [Example 8, 6-Chloro-14-(4-hydroxyphenyl)-10,11,32-trimethyl-2,13-dioxo-22-oxa-1,10,14,18-tetraazahexacyclo[25.3.1.1˜9,12˜.1˜15,18˜.0˜3,8˜.0˜23,28˜]tritriaconta-3,5,7,9(33),11,15(32),16,23,25,27-decaene-17-carbonitrile]: 49.3 nM and 0.00615 µM.
With `Cc1c(N2C(=O)c3cc(n(C)c3C)-c3cc(Cl)ccc3C(=O)N3CCC(CCOc4cc(O)ccc42)CC3)cc(C#N)n1C` [Example 27, 4-[15-Chloro-3-hydroxy-18,19-dimethyl-12,21-dioxo-7,8,9,10,18,21-hexahydro-6H,12H,22H-8,11-ethano-20,17-(metheno)dibenzo[b,j][1,4,8,13]oxatriaza-cyclooctadecin-22-yl]-1,5-dimethyl-1H-pyrrole-2-carbonitrile], the IC50 in test [1] stood at 104 nM; at Bcl-2 protein, 0.0098 µM.
`Cc1c2cc(n1C)-c1cc(Cl)ccc1C(=O)N1CCc3c(cccc3OCCc3c(cnn3C3CCOC3)N(c3ccc(O)cc3)C2=O)C1` (stereo not drawn) [Example 23, 11-Chloro-4-(4-hydroxyphenyl)-7,8-dimethyl-1-(tetrahydrofuran-3-yl)-1,4,16,17,23,24-hexahydro-14H-15,18-methano-6,9-(metheno)dibenzo[l,r]pyrazolo[3,4-d][1,6,10,15]oxatriazacyclononadecine-5,14(8H)-dione]: the results for the IC50 (in test [1]; on Bcl-2 protein) were 73.3 nM and 0.0143 µM, respectively.
As to `Cc1c2cc(n1C)-c1cc(Cl)ccc1C(=O)N1CCc3c(cccc3OCCOc3cc(C#N)cc(c3)N(c3ccc(O)cc3)C2=O)C1` [Example 4, 6-Chloro-14-(4-hydroxyphenyl)-10,11-dimethyl-2,13-dioxo-20,23-dioxa-1,10,14-triazahexacyclo[26.3.1.1˜9,12˜.1˜5,19˜.0˜3,8˜.0˜24.29˜]tetratriaconta-3,5,7,9(34),11,15(33),16,18,24,26,28-undecaene-17-carbonitrile], the IC50 in test [1] was found to be 7.73 nM; at Bcl-2 protein, 0.0023 µM.
For the compound `Cc1c2cc(n1C)-c1cc(Cl)ccc1C(=O)N1CCc3c(cccc3OCCCOc3cc(C#N)cc(c3)N(c3ccc(O)cc3)C2=O)C1` [Example 5, 6-Chloro-14-(4-hydroxyphenyl)-10,11-dimethyl-2,13-dioxo-20,24-dioxa-1,10,14-triazahexacyclo[27.3.1.1˜9,12˜.1˜15,19˜.0˜3,8˜.0˜25,30˜]pentatriaconta-3,5,7,9(35),11,15(34),16,18,25,27,29-undecaene-17-carbonitrile], the 50% inhibitory concentration (IC50) in test [1] was 21.4 nM; on Bcl-2 protein, 0.00205 µM.
